Source: US6716845B2, “Barbituric acid derivatives” (Hoffmann-La Roche Inc., priority 2001, dated 2004)
pIC50: −log10 of the molar value. Like-named read-outs stand apart in the source and are kept apart here.

What was measured:
MMP-8, catalytic domain = biological target: T1, MMP-8, catalytic domain (Homo sapiens, UniProt P22894); assay: Inhibition of MMP-8 catalytic domain, fluorogenic DNP-heptapeptide substrate cleavage; assay type: biochemical
T1 construct: Enzyme: 8 nM catalytic domain (Met80-Gly242) of human neutrophil collagenase (MMP-8); made in house
Description: The results are evaluated by plotting the reciprocal reaction rate against the concentration of the inhibitor.
The synthetic collagenase substrate is a heptapeptide which is coupled, at the C terminus, with DNP (dinitrophenol). Said DNP residue quenches by steric hindrance the fluorescence of the adjacent tryptophane of the heptapeptide. After cleavage of a tripeptide which includes the DNP group, the tryptophane fluorescence increases. The proteolytic cleavage of the substrate therefore can be measured by the fluorescence value.
The assay was performed at 25° C. in a freshly prepared 50 mM Tris buffer (pH 8.0) treated with dithiozone to remove traces of heavy metals. 4 mM CaCl2 was added and the buffer saturated with argon. Stock solutions of adamalysin II were prepared by centrifugation of the protein from an ammonium sulfate suspension and subsequent dissolution in the assay buffer. Stock solutions of collagenase were diluted with the assay buffer. Enzyme concentrations were determined by uv measurements (ε280=2.8 10^4 M^−1 cm^−1, ε288: 2.2 10^4 M^−1·cm^−1) and the stock solutions were stored in the cold. […] Substrate fluorescence was measured at an excitation and emission wavelength of λ=320 and 420 nm, respectively, on a spectrofluorimeter (Perkin Elmer, Model 650-40) equipped with a thermostated cell holder. Substrate hydrolysis was monitored for 10 min. immediately after adding the enzyme. All reactions were performed at least in triplicate. The Ki values-of the inhibitors were calculated from the intersection point of the straight lines obtained by the plots of vo/vi vs. [concentration of inhibitor], whereas IC50 values were calculated from plots of vi/vo [concentration of inhibitor] by non-linear regression with simple robust weighting.
50 mM Tris/HCI pH 7.6 (Tris=Tris-(hydroxymethyl)-aminomethane)
100 mM NaCl/10 mM CaCl2/5% MeOH (if necessary)
Enzyme: 8 nM catalytic domain (Met80-Gly242) of human neutrophil collagenase (MMP-8)
Substrate: 10 microM DNP-Pro-Leu-Gly-Leu-Trp-Ala-D-Arg-NH2
A solution of the enzyme and inhibitor in assay buffer (25° C.) was prepared. The reaction was started by giving the substrate into the solution. The cleavage of the fluorogenic substrate was followed by fluorescence spectroscopy with an excitation and emission wavelength of 280 and 350 nm, respectively. The IC50 value was calculated as the inhibitor concentration, which is necessary to decrease the velocity of the reaction to the half in comparison to the reaction without inhibitor.

[1] = catalytic domain of human neutrophil collagenase (MMP-8), substrate DNP-Pro-Leu-Gly-Leu-Trp-Ala-D-Arg-NH2, 25° C., read-out: IC50 Values of MMP-Inhibitor (vs. MMP-8, catalytic domain)

T1 sequence (P22894 100-262 limits assumed): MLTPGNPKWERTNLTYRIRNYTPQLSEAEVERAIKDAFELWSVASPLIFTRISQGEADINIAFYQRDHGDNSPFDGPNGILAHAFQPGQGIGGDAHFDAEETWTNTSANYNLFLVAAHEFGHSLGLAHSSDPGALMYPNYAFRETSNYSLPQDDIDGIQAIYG

SMILES	pIC50 (MMP-8, catalytic domain; [1])	pIC50 (MMP-8, catalytic domain)	melting point
O=C1NC(=O)C(c2ccc(Oc3ccc(Cl)cc3)cc2)(N2CCN(CC(O)CO)CC2)C(=O)N1 (stereo not shown) [Example 1, 5-[4-(4-Chloro-phenoxy)-phenyl]-5-[4-(2,3-dihydroxy-propyl)-piperazin-1-yl]-pyrimidine-2,4,6-trione]	7.96		
O=C1NC(=O)C(c2ccc(Oc3ccc(Cl)cc3)cc2)(N2CCN(CCOCCO)CC2)C(=O)N1 [Example 2 - no. 1]	7.80		
O=C1NC(=O)C(c2ccc(Oc3ccc(Cl)cc3)cc2)(N2CCN(CC3COC(=O)O3)CC2)C(=O)N1 (stereo not shown) [Example 2 - no. 2, 5-[4-(4-Chloro-phenoxy)-phenyl]-5-[4-(2-oxo-[1,3]dioxolan-4-ylmethyl)-piperazin-1-yl]-pyrimidine-2,4,6-trione]	8.05		
CCOCC(O)CN1CCN(C2(c3ccc(Oc4ccc(Cl)cc4)cc3)C(=O)NC(=O)NC2=O)CC1 (stereo not shown) [Example 2 - no. 3, 5-[4-(4-Chloro-phenoxy)-phenyl]-5-[4-(3-ethoxy-2-hydroxy-propyl)-piperazin-1-yl]-pyrimidine-2,4,6-trione]	7.82		
O=C1NC(=O)C(c2ccc(Oc3ccc(Cl)c(Cl)c3)cc2)(N2CCN(CCOCCO)CC2)C(=O)N1 [Example 2 - no. 4, 5-[4-(3,4-Dichloro-phenoxy)-phenyl]-5-4-[2-(2-hydroxy-ethoxy)-ethyl]-piperazin-1-yl-pyrimidine-2,4,6-trione]	8.15		
O=C1NC(=O)C(c2ccc(Sc3ccccc3)cc2)(N2CCN(CCOCCO)CC2)C(=O)N1 [Example 2 - no. 5, 5-4-[2-(2-Hydroxy-ethoxy)-ethyl]-piperazin-1-yl-5-(4-phenylsulfanyl-phenyl)-pyrimidine-2,4,6-trione]	7.72		
O=C1NC(=O)C(NCCN2CCN(c3ncccn3)CC2)(c2ccc(Oc3ccc(Br)cc3)cc2)C(=O)N1 [Example 2 - no. 10, 5-[4-(4-Bromo-phenoxy)-phenyl]-5-[2-(4-pyrimidin-2-yl-piperazin-1-yl)-ethylamino]-pyrimidine-2,4,6-trione]		8.05	
NS(=O)(=O)c1ccc(CN2CCN(C3(c4ccc(Oc5ccc(Br)cc5)cc4)C(=O)NC(=O)NC3=O)CC2)cc1 [Example 2 - no. 11, 4-(4-5-[4-(4-Bromo-phenoxy)-phenyl]-2,4,6-trioxo-hexahydro-pyrimidin-5-yl-piperazin-1-ylmethyl)-benzenesulfonamide]	7.96		
O=C(O)CCC(=O)N1CCN(C2(c3ccc(Oc4ccccc4)cc3)C(=O)NC(=O)NC2=O)CC1 [Example 3, 4-Oxo-4-4-[2,4,6-trioxo-5-(4-phenoxy-phenyl)-hexahydro-pyrimidin-5-yl]-piperazin-1-yl-butyric acid]	7.96		270 to 275 °C
